Broadly, the IC50 is the concentration that gives 50% inhibition.

The subject of series [1] is A-375. The series is described as follows: Antiproliferative activity against human A-375 cells harboring B-RAF V600E mutant assessed as cell growth inhibition irradiated with sun light for 2.5 mins measured after 72 hrs by CCK-8 analysis. It is filed as functional, cell-based. Conditions: A-375, light or radiation study.
The subject of series [2] is A-375. The series can be described thus: Inhibition of ERK phosphorylation in human A-375 cells at 0.1 to 10 uM incubated for 2 hrs by Western blot analysis. It is filed as cell-based. Conditions: dose 0.1-10 µM. Background: Immunoblotting shows a protein as a band on a membrane.
In series [3] the test system is A-375. The series can be described thus: Antiproliferative activity against human A-375 cells harboring B-RAF V600E mutant assessed as cell growth inhibition irradiated with 365 nm UV light for 10 mins measured after 72 hrs by CCK-8 analysis. Conditions: A-375, light or radiation study. Format: functional, cell-based.
The subject of series [4] is A-375. The series is described as follows: Antiproliferative activity against human A-375 cells harboring B-RAF V600E mutant assessed as cell growth inhibition irradiated with 365 nm UV light for 2.5 mins measured after 72 hrs by CCK-8 analysis. It is filed as functional, cell-based. Conditions: A-375, light or radiation study.
Series [5] concerns A-375. The series can be described thus: Antiproliferative activity against human A-375 cells harboring B-RAF V600E mutant assessed as cell growth inhibition irradiated with sun light for 10 mins measured after 72 hrs by CCK-8 analysis. It is filed as functional, cell-based. To be noted: A-375, light or radiation study.
The subject of series [6] is A-375. The series is described as follows: Antiproliferative activity against human A-375 cells harboring B-RAF V600E mutant assessed as cell growth inhibition irradiated with sun light for 5 mins measured after 72 hrs by CCK-8 analysis. It is filed as functional, cell-based. To be noted: A-375, light or radiation study.
For series [7], the system named is SK-MEL-2. The series is described as follows: Antiproliferative activity against human SK-MEL-2 cells harboring wild type B-RAF assessed as cell growth inhibition measured after 72 hrs by CCK-8 analysis. To be noted: SK-MEL-2, 72 h. Format: functional, cell-based.
The test system of series [8] is A-375. The series is described as follows: Antiproliferative activity against human A-375 cells harboring B-RAF V600E mutant assessed as cell growth inhibition measured after 72 hrs by CCK-8 analysis. It is filed as functional, cell-based. Conditions: A-375, 72 h.
The subject of series [9] is A-375. The series can be described thus: Antiproliferative activity against human A-375 cells harboring B-RAF V600E mutant assessed as cell growth inhibition irradiated with 365 nm UV light for 5 mins measured after 72 hrs by CCK-8 analysis. It is filed as functional, cell-based. To be noted: A-375, light or radiation study.
Series [10] has as its system A-375. The series is described as follows: Antiproliferative activity against human A-375 cells harboring B-RAF V600E mutant assessed as cell growth inhibition irradiated with sun light for 0.5 mins measured after 72 hrs by CCK-8 analysis. It is filed as functional, cell-based. Conditions: A-375, light or radiation study.
The target of series [11] is Serine/threonine-protein kinase B-raf (Homo sapiens, UniProt P15056, V600E). The series is described as follows: Inhibition of GST-tagged recombinant human B-RAF V600E mutant expressed in baculovirus expression system incubated for 1 hr in presence of ATP by FRET-based Z'-Lyte analysis.
Sequence of Serine/threonine-protein kinase B-raf (P15056 2-766 V600E limits assumed): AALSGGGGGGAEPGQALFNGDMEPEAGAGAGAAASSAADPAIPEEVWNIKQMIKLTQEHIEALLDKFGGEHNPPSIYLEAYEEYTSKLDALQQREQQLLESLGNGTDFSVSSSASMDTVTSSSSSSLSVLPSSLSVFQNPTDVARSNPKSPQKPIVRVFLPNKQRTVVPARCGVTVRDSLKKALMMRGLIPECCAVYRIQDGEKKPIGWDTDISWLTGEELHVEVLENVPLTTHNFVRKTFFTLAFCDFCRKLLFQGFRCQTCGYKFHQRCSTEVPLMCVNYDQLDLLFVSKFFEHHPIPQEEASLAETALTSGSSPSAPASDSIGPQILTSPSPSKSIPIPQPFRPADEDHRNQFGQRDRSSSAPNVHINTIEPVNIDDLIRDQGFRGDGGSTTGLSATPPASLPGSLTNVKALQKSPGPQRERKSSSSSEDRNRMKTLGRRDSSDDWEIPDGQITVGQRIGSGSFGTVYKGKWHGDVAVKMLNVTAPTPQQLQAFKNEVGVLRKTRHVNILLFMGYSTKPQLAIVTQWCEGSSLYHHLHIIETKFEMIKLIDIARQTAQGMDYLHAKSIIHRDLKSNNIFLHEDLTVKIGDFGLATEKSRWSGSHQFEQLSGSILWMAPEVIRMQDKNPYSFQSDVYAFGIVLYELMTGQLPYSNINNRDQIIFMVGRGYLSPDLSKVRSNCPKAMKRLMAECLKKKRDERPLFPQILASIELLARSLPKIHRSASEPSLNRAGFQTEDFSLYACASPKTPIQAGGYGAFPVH
The test system of series [12] is SK-MEL-2. The series is described as follows: Antiproliferative activity against human SK-MEL-2 cells harboring wild type B-RAF assessed as cell growth inhibition irradiated with 365 nm UV light for 5 mins measured after 72 hrs by CCK-8 analysis. Format: functional, cell-based. Conditions: SK-MEL-2, light or radiation study.
The subject of series [13] is SK-MEL-1. The series can be described thus: Antiproliferative activity against human SK-MEL-1 cells harboring […] B-RAF assessed as cell growth inhibition irradiated with 365 nm UV light for 5 mins measured after 72 hrs by CCK-8 analysis. It is filed as functional, cell-based. Conditions: SK-MEL-1, light or radiation study.
Series [14] deals with SK-MEL-1. The series can be described thus: Antiproliferative activity against human SK-MEL-1 cells harboring […] B-RAF assessed as cell growth inhibition measured after 72 hrs by CCK-8 analysis. Format: functional, cell-based. To be noted: SK-MEL-1, 72 h.
Series [15] is described as follows: Retention time of compound in PBS buffer by UPLC analysis. To be noted: dose 5.85 µg/ml. It is filed as physicochemical.
Series [16] concerns A-375. The series can be described thus: Antiproliferative activity against human A-375 cells harboring B-RAF V600E mutant assessed as cell growth inhibition irradiated with 365 nm UV light for 0.5 mins measured after 72 hrs by CCK-8 analysis. It is filed as functional, cell-based. To be noted: A-375, light or radiation study.
Series [17] concerns A-375. The series is described as follows: Inhibition of ERK phosphorylation in human A-375 cells at 0.1 to 10 uM incubated for 2 hrs irradiated with 365 nm UV light for 5 mins by Western blot analysis. Conditions: dose 0.1-10 µM. It is filed as cell-based.
Series [18] can be described thus: Photorelease ability in PBS buffer assessed as N-(2,4-difluoro-3-((3-(4-fluorophenyl)-1H-pyrazolo[3,4-b]pyridin-5-yl)ethynyl)phenyl)pyridine-3-sulfonamide formation by measuring half life at 5.85 ug/ml irradiated with 365 nm UV light by UPLC analysis. It is filed as functional. Conditions: dose 5.85 µg/ml.
Series [19] in a line: Photorelease ability in PBS buffer assessed as N-(2,4-difluoro-3-((3-(4-fluorophenyl)-1H-pyrazolo[3,4-b]pyridin-5-yl)ethynyl)phenyl)pyridine-3-sulfonamide formation by measuring half life at 5.85 ug/ml irradiated with sun light by UPLC analysis. Format: functional. To be noted: dose 5.85 µg/ml.

Active and inactive are the calls of the source. The rule behind the calls is not given here. Bounds are passed on as bounds.

In the case of `O=S(=O)(Nc1ccc(F)c(C#Cc2cnc3[nH]nc(-c4ccc(F)cc4)c3c2)c1F)c1cccnc1`, the concentration for half-maximal inhibition (IC50) with A-375 [1] is 160 nM; in the series with A-375 [3], 220 nM; in the series on A-375 [4], 170 nM; with A-375 [5] it was 190 nM; in the series with A-375 [6] it was 170 nM; in the series on SK-MEL-2 [7] it was over 10 µM. Besides, the 50% inhibitory concentration (IC50) in the series on A-375 [8] was 210 nM; with A-375 [9] it was 180 nM; in the series with A-375 [10], 160 nM; in series [11] it was 21 nM; in the series on SK-MEL-2 [12], over 10 µM; with SK-MEL-1 [13], 560 nM. Also, the results for the IC50 in the series on SK-MEL-1 [14] and with A-375 [16] were 760 nM and 190 nM, respectively. Further, the inhibition entry in the series with A-375 [2] and in the series with A-375 [17] was “Active” throughout. Also, in series [15], the Retention_time worked out at 1.7 min.
Take `COc1cc(CN(c2ccc(F)c(C#Cc3cnc4[nH]nc(-c5ccc(F)cc5)c4c3)c2F)S(=O)(=O)c2cccnc2)c([N+](=O)[O-])cc1OC`: the IC50 in the series on A-375 [1] was 340 nM; in the series with A-375 [3] it was 240 nM; in the series with A-375 [4] it was 370 nM; with A-375 [5], 290 nM; with A-375 [6] it was 280 nM; with SK-MEL-2 [7] it was over 10 µM. Further, the concentration for half-maximal inhibition (IC50) was over 10000 nM with A-375 [8]; 210 nM in the series with A-375 [9]; 850 nM in the series with A-375 [10]; over 10000 nM in series [11]; over 10 µM in the series with SK-MEL-2 [12]; 840 nM in the series with SK-MEL-1 [13]. Further, the concentration for half-maximal inhibition (IC50) with SK-MEL-1 [14] was over 10000 nM; in the series with A-375 [16], 700 nM. Also, the figures for the T1/2 in series [18] and in [19] were 2 min and 2.8 min, respectively. The compound further registered a Retention_time in series [15] of 5.9 min. Moreover, the inhibition entry in the series with A-375 [17] is “Active”.

These data come from ChEMBL document CHEMBL5120796, “A novel photocaged B-RafV600E inhibitor toward precise melanoma treatment” (Bioorg Med Chem Lett, 2022).
